# In patent US20100311965A1, “2-AMINOQUINAZOLINE DERIVATIVE” (CARNA BIOSCIENCES INC., priority 2007, published 2010):
# Experiments:
# [1] = molecular target: T1, AurA kinase (Homo sapiens, UniProt O14965); test: Kinase activity, mobility shift assay (MSA), AurA; format: biochemical; settings: read-out: inhibitory activity against AurA kinase
# T1 construct: purchased Carna Biosciences Inc. (Kobe) 05-101
# T1 sequence (O14965 1-403): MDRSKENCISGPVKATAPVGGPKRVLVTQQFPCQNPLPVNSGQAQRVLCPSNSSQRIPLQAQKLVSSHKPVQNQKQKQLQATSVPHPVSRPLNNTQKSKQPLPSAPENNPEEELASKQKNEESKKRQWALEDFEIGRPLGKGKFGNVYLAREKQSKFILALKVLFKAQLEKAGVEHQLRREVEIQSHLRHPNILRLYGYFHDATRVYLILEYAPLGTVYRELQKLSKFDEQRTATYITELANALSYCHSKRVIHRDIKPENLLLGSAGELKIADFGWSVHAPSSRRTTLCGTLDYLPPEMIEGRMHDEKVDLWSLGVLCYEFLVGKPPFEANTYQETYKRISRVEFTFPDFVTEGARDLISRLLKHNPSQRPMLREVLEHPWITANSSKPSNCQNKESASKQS
# Procedure: (§1) A test compound was dissolved in DMSO to obtain a 10 mM test compound solution, which was stored in a dark place at −20° C. until measurement. When bioactivity (kinase activity) is measured, a test compound solution is diluted with DMSO so that the concentration becomes 100 times higher than […], and then diluted 25 times (DMSO concentration is 4%) with an assay buffer described hereinafter.
# (§2) Products manufactured by Carna Biosciences Inc. (Kobe) used as protein kinases (recombinant human kinases) in the test are as follows: […]
# (§3) Kinase activity was measured by a mobility shift assay (MSA) method using QuickScout Screening Assist™ MSA (commercially available kit, manufactured by Carna Biosciences Inc.)
# (§4) 5 μl of a test compound solution (the concentration is 4 times of the final concentration) dissolved or suspended in an assay buffer [20 mM HEPES, 0.01% Triton™ X-100, 1 mM dithiothreitol, pH 7.5] or 5 μl of a solvent (4% DMSO-assay buffer) was charged in a 384 well plate made of polypropylene (product number 781280, manufactured by Greiner Bio-One Co., Ltd.). […] Inhibition (%) of the test compound was calculated in accordance with the following equation: […]
# [2] = molecular target: T2, Flt3 kinase (Homo sapiens, UniProt P36888); test: Kinase activity, mobility shift assay (MSA), Flt3; format: biochemical; settings: read-out: inhibitory activity against Flt3 kinase
# T2 construct: purchased Carna Biosciences Inc. (Kobe) 08-154
# T2 sequence (P36888 27-993): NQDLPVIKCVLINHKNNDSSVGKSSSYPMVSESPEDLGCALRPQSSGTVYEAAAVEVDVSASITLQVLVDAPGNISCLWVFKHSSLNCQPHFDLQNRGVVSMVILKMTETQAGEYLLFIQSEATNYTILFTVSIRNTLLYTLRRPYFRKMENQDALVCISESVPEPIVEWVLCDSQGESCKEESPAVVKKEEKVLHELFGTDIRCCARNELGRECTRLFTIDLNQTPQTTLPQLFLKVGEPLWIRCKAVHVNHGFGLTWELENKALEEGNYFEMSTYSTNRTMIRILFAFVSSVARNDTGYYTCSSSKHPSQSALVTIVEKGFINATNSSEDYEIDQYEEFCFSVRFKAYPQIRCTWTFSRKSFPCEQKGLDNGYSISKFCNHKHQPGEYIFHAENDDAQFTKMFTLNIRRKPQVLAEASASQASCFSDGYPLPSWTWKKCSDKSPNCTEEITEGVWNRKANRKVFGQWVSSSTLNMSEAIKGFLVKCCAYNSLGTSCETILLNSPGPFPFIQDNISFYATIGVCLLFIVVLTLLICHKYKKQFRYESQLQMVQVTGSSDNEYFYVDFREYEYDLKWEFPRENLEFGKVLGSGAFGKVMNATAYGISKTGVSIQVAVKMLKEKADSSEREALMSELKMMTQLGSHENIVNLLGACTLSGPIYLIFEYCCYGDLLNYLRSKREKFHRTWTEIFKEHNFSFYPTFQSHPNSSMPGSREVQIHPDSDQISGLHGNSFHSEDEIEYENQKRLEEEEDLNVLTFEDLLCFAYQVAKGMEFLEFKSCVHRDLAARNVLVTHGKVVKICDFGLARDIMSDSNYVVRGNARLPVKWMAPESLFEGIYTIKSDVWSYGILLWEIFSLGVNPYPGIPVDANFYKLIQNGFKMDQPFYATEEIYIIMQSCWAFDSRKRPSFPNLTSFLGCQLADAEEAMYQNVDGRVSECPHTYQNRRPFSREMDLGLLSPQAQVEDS
# Procedure: as §1
# (§5) Products manufactured by Carna Biosciences Inc. (Kobe) used as protein kinases (recombinant human kinases) in the test are as follows:
# (§6) SYK (product number: 08-176), JAK3 (product number: 08-046), FLT3 (product number: 08-154), PDGFRα (PDGFRA) (product number: 08-157), TRKA (NTRK1) (product number: 08-186), KDR (product number: 08-191), CDK2/cycA (product number: 04-103), and AurA (AURKA) (product number: 05-101).
# as §3
# (§7) 5 μl of a test compound solution (the concentration is 4 times of the final concentration) dissolved or suspended in an assay buffer [20 mM HEPES, 0.01% Triton™ X-100, 1 mM dithiothreitol, pH 7.5] or 5 μl of a solvent (4% DMSO-assay buffer) was charged in a 384 well plate made of polypropylene (product number 781280, manufactured by Greiner Bio-One Co., Ltd.). Then, 5 μl of ATP/substrate/metal solution of QuickScout Screening Assist MSA was added. Furthermore, 10 μl of a kinase solution diluted with assay buffer was added and the reaction was initiated. However, only assay buffer (10 μl) was added to blank. The concentration of kinase and reaction conditions were controlled in accordance with the protocol of QuickScout Screening Assist MSA. Then, the reaction was terminated by adding 60 μl of termination buffer of QuickScout Screening Assist MSA and the amount of a substrate (S) and a phosphorylated substrate (P) in the reaction solution were determined in accordance with the protocol of QuickScout Screening Assist MSA using LabChip3000 (manufactured by Caliper Life Sciences Co., MA, USA), and also inhibition of the test compound at a concentration of 0.01, 0.1 and 1 μM was measured, respectively. The amounts of S and P were expressed by the height of each separated peak. Inhibition (%) of the test compound was calculated in accordance with the following equation:
# (§8) Inhibition (%)=(1−(C−A)/(B−A))×100
# (§9) where A denotes blank, B denotes a solvent and C denotes P/(P+S) of a well of the compound.
# [3] = molecular target: JAK2 (Homo sapiens, UniProt O60674); test: Kinase activity, mobility shift assay (MSA), JAK2; format: biochemical; settings: read-out: inhibitory activity against JAK2 kinase
# Sequence of JAK2 (O60674 whole entry): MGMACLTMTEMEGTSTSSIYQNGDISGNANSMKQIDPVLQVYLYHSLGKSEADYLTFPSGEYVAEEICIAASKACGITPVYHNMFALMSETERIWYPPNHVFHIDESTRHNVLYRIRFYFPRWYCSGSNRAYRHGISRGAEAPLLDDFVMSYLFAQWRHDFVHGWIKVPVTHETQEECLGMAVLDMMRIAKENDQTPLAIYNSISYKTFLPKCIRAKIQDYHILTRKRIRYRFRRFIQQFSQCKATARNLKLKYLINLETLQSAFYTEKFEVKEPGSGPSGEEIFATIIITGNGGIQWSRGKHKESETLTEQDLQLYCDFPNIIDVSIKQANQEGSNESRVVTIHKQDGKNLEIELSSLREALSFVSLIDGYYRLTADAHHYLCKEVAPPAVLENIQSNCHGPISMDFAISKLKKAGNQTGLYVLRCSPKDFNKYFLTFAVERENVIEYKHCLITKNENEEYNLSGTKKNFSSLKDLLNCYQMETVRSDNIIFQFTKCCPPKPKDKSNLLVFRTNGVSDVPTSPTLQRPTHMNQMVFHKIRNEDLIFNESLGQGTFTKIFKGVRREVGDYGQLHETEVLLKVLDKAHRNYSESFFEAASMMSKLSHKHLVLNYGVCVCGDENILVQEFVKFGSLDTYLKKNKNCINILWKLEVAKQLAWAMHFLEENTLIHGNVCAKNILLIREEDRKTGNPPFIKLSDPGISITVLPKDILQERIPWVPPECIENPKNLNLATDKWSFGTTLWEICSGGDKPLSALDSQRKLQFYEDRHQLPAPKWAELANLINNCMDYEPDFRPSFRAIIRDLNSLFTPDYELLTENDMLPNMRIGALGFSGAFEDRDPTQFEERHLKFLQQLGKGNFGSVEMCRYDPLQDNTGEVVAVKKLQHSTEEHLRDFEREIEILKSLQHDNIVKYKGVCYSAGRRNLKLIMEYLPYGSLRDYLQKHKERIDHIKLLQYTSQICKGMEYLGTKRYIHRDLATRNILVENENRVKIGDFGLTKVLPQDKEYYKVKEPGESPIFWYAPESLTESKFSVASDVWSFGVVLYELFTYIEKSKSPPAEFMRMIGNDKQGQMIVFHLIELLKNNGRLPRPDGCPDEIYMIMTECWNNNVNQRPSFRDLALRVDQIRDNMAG
# [4] = molecular target: T3, JAK3 (Homo sapiens, UniProt P52333); test: Kinase activity, mobility shift assay (MSA), JAK3; format: biochemical; settings: read-out: inhibitory activity against JAK3 kinase
# T3 construct: purchased Carna Biosciences Inc. (Kobe) 08-046
# T3 sequence (P52333 1-1124): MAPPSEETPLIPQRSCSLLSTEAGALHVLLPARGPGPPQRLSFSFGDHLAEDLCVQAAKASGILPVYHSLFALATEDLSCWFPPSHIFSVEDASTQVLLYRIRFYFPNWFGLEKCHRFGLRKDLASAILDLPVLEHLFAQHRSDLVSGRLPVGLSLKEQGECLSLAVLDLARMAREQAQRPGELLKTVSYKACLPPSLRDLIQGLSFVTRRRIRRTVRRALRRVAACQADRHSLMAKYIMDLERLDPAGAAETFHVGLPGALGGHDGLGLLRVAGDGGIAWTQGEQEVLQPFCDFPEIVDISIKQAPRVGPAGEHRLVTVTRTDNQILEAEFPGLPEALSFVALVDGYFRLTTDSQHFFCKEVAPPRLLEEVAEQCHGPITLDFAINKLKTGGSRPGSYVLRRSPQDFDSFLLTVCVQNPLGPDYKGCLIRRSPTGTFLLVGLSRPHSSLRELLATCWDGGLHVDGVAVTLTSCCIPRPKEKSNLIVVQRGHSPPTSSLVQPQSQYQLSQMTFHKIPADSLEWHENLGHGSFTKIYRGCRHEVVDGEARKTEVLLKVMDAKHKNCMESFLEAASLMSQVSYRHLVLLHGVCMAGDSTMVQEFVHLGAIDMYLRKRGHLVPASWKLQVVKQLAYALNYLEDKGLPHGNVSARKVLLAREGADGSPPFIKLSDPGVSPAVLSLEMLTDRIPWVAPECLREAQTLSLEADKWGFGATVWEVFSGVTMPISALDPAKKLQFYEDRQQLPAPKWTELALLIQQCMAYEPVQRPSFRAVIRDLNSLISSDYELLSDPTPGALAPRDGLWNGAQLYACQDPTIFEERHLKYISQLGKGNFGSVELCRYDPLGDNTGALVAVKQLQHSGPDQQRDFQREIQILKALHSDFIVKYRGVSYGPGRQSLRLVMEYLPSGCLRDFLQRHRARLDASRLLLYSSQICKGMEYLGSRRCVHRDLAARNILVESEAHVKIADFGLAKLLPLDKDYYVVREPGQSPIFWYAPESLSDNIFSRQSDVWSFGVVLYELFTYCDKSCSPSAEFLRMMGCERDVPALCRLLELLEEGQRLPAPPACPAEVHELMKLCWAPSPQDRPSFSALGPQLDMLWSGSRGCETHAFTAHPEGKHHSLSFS
# Procedure: as §1, §2, §3, §4
# [5] = system: Rat basophilic cells RBL-2H3; test: Action against IgE-induced degranulation (β-hexosaminidase release); format: cell-based; settings: RBL-2H3 cells, anti-DNP-IgE / DNP-BSA, read-out: inhibitory activity against IgE-induced degranulation
# Procedure: An inhibitory action against SYK was evaluated by an inhibitory action against degranulation of basophils induced by IgE. Rat basophilic cells RBL-2H3 were incubated with an anti-DNP-IgE antibody (1 μg/mL, Zymed) overnight. After washing cells twice with HBSS, an antigen DNP-BSA (1 μg/mL, LSL) was added, followed by incubation for 30 minutes. The supernatant was taken and an activity of β-hexosaminidase in the solution isolated by degranulation was measured using p-nitrophenyl-N-β-D-glucosaminide as a substrate. Using an absorbance meter (Spectra MAX Pro, Molecular Devices), each absorbance at 405 nm and 570 nm of the solution was measured and an increase in the amount was taken as an enzyme activity. 10 minutes before the addition of an antigen, a test material and a solvent (0.1% DMSO) were added to cells. Inhibition rate (%) against degranulation was calculated by the following equation.
# Inhibition rate (%)=(1−(A−C)/(B−C))×100
# where A denotes an increase in absorbance of a test material group, B denotes an increase in absorbance of a solvent group, and C denotes an increase in absorbance of a solvent group which is not stimulated by an antigen.
# [6] = molecular target: T4, Syk kinase (Homo sapiens, UniProt P43405); test: Kinase activity, mobility shift assay (MSA), Syk; format: biochemical; settings: read-out: inhibitory activity against Syk kinase
# T4 construct: purchased Carna Biosciences Inc. (Kobe) 08-176
# Procedure: as §1, §5, §6, §3, §7, §8, §9
smiles,measurement,setting,value
"Cc1cccc2cnc(Nc3ccc4cc[nH]c4c3)nc12 [Example 5, N-(1H-indol-6-yl)-8-methylquinazoline-2-amine]",inhibition at 0.1 µM,[1],≥ 50%
"Cc1cccc2cnc(Nc3ccc4c(c3)OCO4)nc12 [Example 6, N-(benzo[d][1,3]dioxol-5-yl)-8-methylquinazoline-2-amine]",inhibition at 0.1 µM,[2],≥ 50%
"Cc1cccc2cnc(Nc3ccc4c(c3)OCCO4)nc12 [Example 7, N-(2,3-dihydrobenzo[b][1,4]dioxin-6-yl)-8-methylquinazoline-2-amine]",inhibition at 0.1 µM,[2],≥ 50%
"Cc1cccc2cnc(Nc3ccc4c(c3)NC(=O)CO4)nc12 [Example 8, 6-(8-methylquinazolin-2-ylamino)-2H-benzo[b][1,4]oxazin-3(4H)-one]",inhibition at 0.01 µM,[2],≥ 50%
"CC(=O)Nc1cccc(Nc2ncc3cccc(C)c3n2)c1 [Example 11, N-(3-(8-methylquinazolin-2-ylamino)phenyl)acetamide]",inhibition at 0.01 µM,[2],≥ 50%
COc1ccc(Nc2ncc3cccc(C)c3n2)cc1OC [Example 30],inhibition at 0.1 µM,[3],≥ 50%
same,inhibition at 0.1 µM,[4],≥ 50%
"Clc1cccc2cnc(Nc3ccc4cn[nH]c4c3)nc12 [Example 32, 8-chloro-N-(1H-indazol-6-yl)quinazoline-2-amine]",inhibition at 0.01 µM,[2],≥ 50%
"Cc1c(N2CCN(C)CC2)ccc2cnc(Nc3ccc4cn[nH]c4c3)nc12 [Example 63, N-(1H-indazol-6-yl)-8-methyl-7-(4-methylpiperazin-1-yl)quinazoline-2-amine]",inhibition at 0.05 µM,[5],≥ 50%
"CCNC(=O)n1ncc2c(N)cc(Nc3ncc4cccc(C)c4n3)cc21 [Example 79, 4-amino-N-ethyl-6-(8-methylquinazolin-2-ylamino)-1H-indazole-1-carboxamide]",inhibition at 0.05 µM,[5],≥ 50%
"CCOC(=O)NCc1cc(Nc2ncc3cccc(C)c3n2)cc2[nH]ncc12 [Example 80, Ethyl [6-(8-methylquinazolin-2-ylamino)-1H-indazol-4-yl]methylcarbamate]",inhibition at 0.05 µM,[5],≥ 50%
"Cc1cccc2cnc(Nc3cc(O)c4cn[nH]c4c3)nc12 [Example 82, 8-methyl-N-(4-hydroxy-1H-indazol-6-yl)quinazoline-2-amine]",inhibition at 0.05 µM,[5],≥ 50%
same,inhibition at 0.1 µM,[6],≥ 50%
"Cc1nc2c(N)cc(Nc3ncc4cccc(C)c4n3)cc2[nH]1 [Example 88, 8-methyl-N-(2-methyl-4-amino-1H-benzo[d]imidazol-6-yl)quinazoline-2-amine]",inhibition at 0.05 µM,[5],≥ 50%
same,inhibition at 0.1 µM,[6],≥ 50%
